The values below come from patent US10280179B2, “Spiroquinoxaline derivatives as inhibitors of non-apoptotic regulated cell-death” (Helmholtz Zentrum Munchen—Deutches Forschungszentrum Fur …, priority 2013, dated 2019).

In one data set the test system is human neuroblastoma cell line SH-SY5Y. As to the kind of experiment: Inhibition of BSO-induced non-apoptotic cell death (Example B.1). Type of data set: cell-based. As to conditions: SH-SY5Y cells, 50 μM BSO, 72 hours, read-out: SH-SY5Y/BSO IC50. From the text: Inhibition of BSO-Induced Non-Apoptotic Cell Death by Compounds Disclosed Herein
L-Buthionine sulfoximine (BSO) is a well-known glutathione (GSH) depletory, which inhibits gamma-glutamyl-cysteine-synthetase, the enzyme catalyzing the rate-limiting step in GSH biosynthesis. The human neuroblastoma cell line SH-SY5Y is sensitive to BSO-induced intracellular glutathione depletion, which causes high levels of reactive oxygen species (ROS) and cellular stress mimicking cellular conditions following ischemia (cf., e.g., Yamada et al., Neurochem. Int. 59:1003-9 (2011)).
Compounds disclosed herein were evaluated for their ability to promote cell survival upon administration of a lethal dose of BSO to cell-culture medium. Briefly, SH-SY5Y cells (ATCC® CRL-2266™) were propagated in DMEM supplemented with 10% FBS/1% Penicillin-Streptomycin, and then seeded onto 96-well plates at a concentration of 750 cells/well in 100 μL of media, to which BSO (Sigma Aldrich) was added (to a final concentration of 50 μM) together with increasing concentrations of the compound to be tested, and the plates incubated at 37° C./5% CO2 for 72 hours. Compound dilutions (0.5 pM to 100 μM) were prepared from 10 mM stocks dissolved in DMSO and diluted in media. Cells treated with BSO alone were used as negative control and alpha-Tocopherol (Sigma Aldrich) was used as positive control. Compound concentrations were tested in triplicate. After incubation, cell survival was detected using the live/dead cell assay AquaBluer™ (MultiTarget Pharmaceuticals) and quantified using a fluorescence plate reader (excitation filter: 530-560 nm/emission filter: 590 nm) (SpectraMax M4; Molecular Devices). Fluorescence data so obtained was normalised to the percentage of surviving cells and IC50 values calculated using the GraphPad Prism (GraphPad Software, Inc) software package.
Consider `Clc1cc2c(cc1Cl)NC1(CCOCC1)C(NCc1ccccc1)=N2` [O/S-339], for which the IC50 is < 20 nM.

As for `CC1CCC2(CC1)Nc1ccccc1N=C2NCc1ccccc1` (centres unmarked) [C-252], the IC50 is < 200 nM.

Turning to `Fc1cc2c(cc1F)NC1(CCNCC1)C(NCc1cccc(Cl)c1)=N2` [N-117], the IC50 was < 10 nM.

Turning to `Clc1ccc(CNC2=Nc3ccccc3NC23CCNCC3)cc1` [N-3], the IC50 is < 50 nM.

Regarding `Fc1cc2c(cc1F)NC1(CCCCC1)C(NCc1cccc(Cl)c1)=N2` [C-137], the IC50 was < 200 nM.

As to `Clc1ccc(CNC2=Nc3ccccc3NC23CCCCC3)cc1Cl` [C-228], the IC50 was < 50 nM.

`CC1CC2(CCN1)Nc1ccccc1N=C2NCc1cccc(Cl)c1` (centres unmarked) [N-239]: the IC50 was < 50 nM.

Take `Cc1cc2c(cc1C)NC1(CCOCC1)C(NCc1ccccc1)=N2` [O/S-340]: the IC50 was < 200 nM.

`Clc1cc2c(cc1Cl)NC1(CCCCC1)C(NCc1ccccc1)=N2` [C-217]: the IC50 was < 50 nM.

As for `Cc1cc(C)cc(CNC2=Nc3cc(Cl)c(Cl)cc3NC23CCCCCC3)c1` [C-262], the IC50 is < 100 nM.

On to `Cc1cc(C)cc(CNC2=Nc3cc(C)c(C)cc3NC23CCNCC3)c1` [N-262], for which the IC50 was < 20 nM.

On to `Clc1cccc(CNC2=Nc3ccccc3NC23CCCCC3)c1` [C-2], for which the IC50 was < 100 nM.

Turning to `FC(F)(F)c1ccc2c(c1)N=C(NCc1ccccc1)C1(CCCCC1)N2` [C-259], the IC50 was < 100 nM.

With `Clc1cccc(CNC2=Nc3cc4c(cc3NC23CCNCC3)OCCO4)c1` [N-219], the IC50 is < 500 nM.

In the next data set the test system is Pfa1 cells. Kind of data set: Inhibition of non-apoptotic cell death after tamoxifen-induced GPx4 knockout in a recombinant cell line (Example B.4). The format is cell-based. The conditions noted are these: Mus musculus, read-out: Pfa1/TAM IC50. From the text:
Inhibition of Non-Apoptotic Cell-Death by Compounds Disclosed Herein Using a Recombinant Cell Line
To combat high intracellular ROS levels, mammalian cells have evolved an intricate network of ROS scavenging in cells, in which the thioredoxin and glutathione (GSH) dependent systems prevail. […] Knockout of GPx4 in neurons causes massive neurodegeneration in cortical, cerebellar and hippocampal neurons underscoring the high relevance of ROS-induced cell death signaling in the brain. Briefly, immortalised fibroblasts from these mice were made to contain tamoxifen-inducible CreERT2, which catalyzes the functional ablation of both copies of GPx4 and resulting in a complete knockout of GPx4, a massive ROS burst, and cell death in cell culture. These cells (Pfa1 cells) were used to characterize compounds of the present invention, whereby tamoxifen (TAM) was given on day 0 along with the compound under test, and 72 hours later cell survival was evaluated using AlamarBlue.
For the compound `Clc1cc2c(cc1Cl)NC1(CCOCC1)C(NCc1ccccc1)=N2` [O/S-339], the IC50 is < 50 nM.

Consider `CC1CCC2(CC1)Nc1ccccc1N=C2NCc1ccccc1` (centres unmarked) [C-252], for which the IC50 is < 1000 nM.

`Fc1cc2c(cc1F)NC1(CCNCC1)C(NCc1cccc(Cl)c1)=N2` [N-117]: the IC50 was < 50 nM.

For the compound `Clc1ccc(CNC2=Nc3ccccc3NC23CCNCC3)cc1` [N-3], the IC50 was < 10 nM.

Take `Fc1cc2c(cc1F)NC1(CCCCC1)C(NCc1cccc(Cl)c1)=N2` [C-137]: the IC50 was < 200 nM.

With `Clc1ccc(CNC2=Nc3ccccc3NC23CCCCC3)cc1Cl` [C-228], the IC50 is < 50 nM.

`CC1CC2(CCN1)Nc1ccccc1N=C2NCc1cccc(Cl)c1` (centres unmarked) [N-239]: the IC50 is < 1000 nM.

Turning to `Cc1cc2c(cc1C)NC1(CCOCC1)C(NCc1ccccc1)=N2` [O/S-340], the IC50 is < 500 nM.

For the compound `Clc1cc2c(cc1Cl)NC1(CCCCC1)C(NCc1ccccc1)=N2` [C-217], the IC50 is < 50 nM.

As to `Cc1cc(C)cc(CNC2=Nc3cc(Cl)c(Cl)cc3NC23CCCCCC3)c1` [C-262], the IC50 is < 500 nM.

In the case of `Cc1cc(C)cc(CNC2=Nc3cc(C)c(C)cc3NC23CCNCC3)c1` [N-262], the IC50 is < 50 nM.

Consider `Clc1cccc(CNC2=Nc3ccccc3NC23CCCCC3)c1` [C-2], for which the IC50 is < 100 nM.

As to `FC(F)(F)c1ccc2c(c1)N=C(NCc1ccccc1)C1(CCCCC1)N2` [C-259], the IC50 was < 500 nM.

In the case of `Clc1cccc(CNC2=Nc3cc4c(cc3NC23CCNCC3)OCCO4)c1` [N-219], the IC50 is < 1000 nM.

Another data set relates to mouse hippocampal cell line (Ht22). Kind of data set: Inhibition of glutamate-induced non-apoptotic cell death (Example B.2). The format is cell-based. As to conditions: HT-22, Ht22 cells, glutamate-induced cell death, read-out: Ht22/GLU. From the text: Inhibition of Glutamate-Induced Non-Apoptotic Cell Death by Compounds of the Present Invention
Glutamate toxicity is conferred on cells from the mouse hippocampal cell line (Ht22) by inhibition of the cysteine/glutamate antiporter, System xc-, leading to impaired cysteine uptake and subsequent GSH depletion. This model is frequently used for mimicking glutathione depletion following oxidative stress in stroke, brain trauma and other neurodegenerative diseases and cellular conditions following ischemia (for example: van Leyen et al, J. Neurochem. 92:824-30 (2005)).
Compounds disclosed herein were evaluated for their ability to promote cell survival upon administration of a lethal dose of glutamate (GLU) to the cell-culture medium.
Briefly, Ht22 cells (ATCC) were propagated DMEM supplemented with 10% FBS/1% Penicillin-Streptomycin, and then seeded onto 96-well plates at a concentration of 2,000 cells/well in 100 μL of MEDIA, simultaneously with glutamate (Sigma Aldrich) to a final concentration of 5 mM, together with increasing concentrations of the compound to be tested (0.5 pM to 100 μM), and the plates incubated at 37° C./5% CO2 for 72 hours. Compound dilutions were prepared from 10 mM stocks dissolved in DMSO and diluted in media. Cells treated with glutamate alone were used as negative control and alpha-tocopherol (Sigma Aldrich) was used as positive control. Compound concentrations were tested in triplicate. After incubation, cell survival was detected and quantified as described in Example B.1.
In the case of `Clc1cc2c(cc1Cl)NC1(CCOCC1)C(NCc1ccccc1)=N2` [O/S-339], the IC50 was < 200 nM.

On to `CC1CCC2(CC1)Nc1ccccc1N=C2NCc1ccccc1` (centres unmarked) [C-252], for which the IC50 is < 1000 nM.

With `Fc1cc2c(cc1F)NC1(CCNCC1)C(NCc1cccc(Cl)c1)=N2` [N-117], the IC50 is < 50 nM.

On to `Clc1ccc(CNC2=Nc3ccccc3NC23CCNCC3)cc1` [N-3], for which the IC50 is < 50 nM.

Turning to `Fc1cc2c(cc1F)NC1(CCCCC1)C(NCc1cccc(Cl)c1)=N2` [C-137], the IC50 was < 200 nM.

Turning to `Clc1ccc(CNC2=Nc3ccccc3NC23CCCCC3)cc1Cl` [C-228], the IC50 is < 500 nM.

As for `CC1CC2(CCN1)Nc1ccccc1N=C2NCc1cccc(Cl)c1` (centres unmarked) [N-239], the IC50 is < 200 nM.

For `Cc1cc2c(cc1C)NC1(CCOCC1)C(NCc1ccccc1)=N2` [O/S-340], the IC50 was < 500 nM.

`Clc1cc2c(cc1Cl)NC1(CCCCC1)C(NCc1ccccc1)=N2` [C-217]: the IC50 is < 200 nM.

Consider `Cc1cc(C)cc(CNC2=Nc3cc(Cl)c(Cl)cc3NC23CCCCCC3)c1` [C-262], for which the IC50 was < 500 nM.

Regarding `Cc1cc(C)cc(CNC2=Nc3cc(C)c(C)cc3NC23CCNCC3)c1` [N-262], the IC50 is < 50 nM.

Consider `Clc1cccc(CNC2=Nc3ccccc3NC23CCCCC3)c1` [C-2], for which the IC50 was < 500 nM.

For `FC(F)(F)c1ccc2c(c1)N=C(NCc1ccccc1)C1(CCCCC1)N2` [C-259], the IC50 is < 500 nM.

In the case of `Clc1cccc(CNC2=Nc3cc4c(cc3NC23CCNCC3)OCCO4)c1` [N-219], the IC50 was < 1000 nM.

Test system in the next data set: not listed separately
As to the kind of experiment: Cellular toxicity, same assay as Example B.4 without TAM (Example B.5). The conditions noted are these: mouse; Pfa1 cells without TAM; read-out: TC50 (the source's name). Type of data set: cell-based. From the text:
Cellular Toxicity of Compounds of the Invention
An estimate of the toxicity for compounds of the invention was obtained by using the same assay as described in Example B.4, but without the addition of TAM. […] Such TC50 values obtained for certain compounds disclosed herein, together with an approximate therapeutic window (estimated by dividing each TC50 by the corresponding IC50 determined from example B.4) are shown in Table 3.
For the compound `Clc1cc2c(cc1Cl)NC1(CCOCC1)C(NCc1ccccc1)=N2` [O/S-339], the CC50 lay in the range of 20000 to 50000 nM.

With `CC1CCC2(CC1)Nc1ccccc1N=C2NCc1ccccc1` (centres unmarked) [C-252], the CC50 lay in the range of 10000 to 20000 nM.

Regarding `Fc1cc2c(cc1F)NC1(CCNCC1)C(NCc1cccc(Cl)c1)=N2` [N-117], the CC50 fell in the range of 1000 to 2000 nM.

In the case of `Clc1ccc(CNC2=Nc3ccccc3NC23CCNCC3)cc1` [N-3], the CC50 lay in the range of 5000 to 10000 nM.

For the compound `Fc1cc2c(cc1F)NC1(CCCCC1)C(NCc1cccc(Cl)c1)=N2` [C-137], the CC50 was in the range of 10000 to 20000 nM.

With `Clc1ccc(CNC2=Nc3ccccc3NC23CCCCC3)cc1Cl` [C-228], the CC50 lay in the range of 20000 to 50000 nM.

Consider `CC1CC2(CCN1)Nc1ccccc1N=C2NCc1cccc(Cl)c1` (centres unmarked) [N-239], for which the CC50 fell in the range of 5000 to 10000 nM.

`Cc1cc2c(cc1C)NC1(CCOCC1)C(NCc1ccccc1)=N2` [O/S-340]: the CC50 is 20000 to 50000 nM.

Turning to `Clc1cc2c(cc1Cl)NC1(CCCCC1)C(NCc1ccccc1)=N2` [C-217], the CC50 lay in the range of 20000 to 50000 nM.

Take `Cc1cc(C)cc(CNC2=Nc3cc(Cl)c(Cl)cc3NC23CCCCCC3)c1` [C-262]: the CC50 was in the range of 10000 to 20000 nM.

Take `Cc1cc(C)cc(CNC2=Nc3cc(C)c(C)cc3NC23CCNCC3)c1` [N-262]: the CC50 fell in the range of 500 to 1000 nM.

On to `Clc1cccc(CNC2=Nc3ccccc3NC23CCCCC3)c1` [C-2], for which the CC50 fell in the range of 10000 to 20000 nM.

Take `FC(F)(F)c1ccc2c(c1)N=C(NCc1ccccc1)C1(CCCCC1)N2` [C-259]: the CC50 lay in the range of 5000 to 10000 nM.

For the compound `Clc1cccc(CNC2=Nc3cc4c(cc3NC23CCNCC3)OCCO4)c1` [N-219], the CC50 fell in the range of 20000 to 50000 nM.
